Values after ≈ are worked out from the molar mass of the structure shown. Where a name gives a salt, the structure may show the parent alone. One block for each compound: values may come before it.
Key:
[1] = Solubility in distilled water; type: physicochemical
[2] = Osmotic pressure of the solute; type: physicochemical
Excerpt: The osmotic pressure, ATM, of the above solutes can be measured in a commercially available osmometer that measures the vapor pressure difference between pure water and the solution containing a solute to be analyzed, and according to standard thermodynamic principles, the vapor pressure ratio is converted into osmotic pressure difference. An osmometer that can be used for the present measurements is identified as Model 302B Vapor Pressure Osmometer, manufactured by Hewlett Packard Company, Avondale, Pa.

[3] = test system: open-angle glaucoma, intraocular pressure; test: Clinical study of mean intraocular pressure (IOP) in patients diagnosed as having open-angle glaucoma; type: in vivo, patients (human); details: 12 patients
Excerpt: The present invention provides an ocular therapeutic system for administering a therapeutically effective amount of a beta-adrenergic blocking drug, and a therapeutically effective amount of a parasympathomimetic drug concurrently from a single ocular dosage form that can lead to synergestic clinical results. The clinical study that follows presents the results obtained by the simultaneous administration to the eye of a beta-adrenergic blocking drug and a parasympathomimetic drug to the eyes of patients.
In a clinical study using 12 patients diagnosed as having open-angle glaucoma, the mean intraocular pressures, IOP's, were measured with each patient under the following therapies: (a) S-(-)-1-(tert-butylamino)-3-[(4-morpholino-1,2,5-thiadiazol-3-yl)oxy-2-propanol maleate, timolol maleate, 0.25% ophthalmic solution instilled as drop alone; (b) timolol maleate, 0.50% ophthalmic solution instilled as drop alone; (c) (3s-cis)-3-ethyldihydro-4-[(1-methyl-1H-imidazol-5-yl) methyl]-2(3H)-furanone, pilocarpine, administered at a rate of 40 micrograms per hour from an ocular therapeutic system placed in the conjunctival sac; (d) therapy comprising 0.25 timolol maleate instilled with concomitant release of 40 micrograms of pilocarpine from an ocular system; and (e) therapy comprising 0.50 timolol maleate instilled with concomitant release of 40 mcg (micrograms) of pilocarpine from an ocular system. In the table, the results of (a) and (c) administered alone are additive, while the results are synergistic for (d) wherein the two drugs were administered concomitantly to the eye. In the table, the results of (b) and (c) administered alone are additive, where the results are synergistic for (e) wherein the two drugs were administered concomitantly to the eye.

solubility ([1]; water): 270 mg/mL (≈ 1300 mM) | osmotic pressure [2]: 37 atm
Structure (SMILES): CC[C@@H]1C(=O)OC[C@@H]1Cc1cncn1C [(3S-cis)-ethyldihydro-4-[(1-methyl-1H-imidazol-5-yl)methyl]-2(3H)-furanonenitrate]

Structure (SMILES): CC(C)(C)NC[C@H](O)COc1nsnc1N1CCOCC1 [timolol, S-(-)-1-(tert-butylamino)-3-[(4-morpholino-1,2,5-thiadiazol-3-yl)oxy-2-propanol maleate]
Mean IOP Reduction ([3]; (a) timolol maleate 0.25% ophthalmic solution instilled as drop alone): 1.4 mm | Mean IOP Reduction ([3]; (b) timolol maleate 0.50% ophthalmic solution instilled as drop alone): 2.4 mm

solubility ([1]; 25° C): 860 mg/mL (≈ 3220 mM) | osmotic pressure [2]: 210 atm
Structure (SMILES): COCCc1ccc(OCC(O)CNC(C)C)cc1 (racemic) [(±)-1-[4-(2-methoxyethyl)-phenoxy]-3-[(1-methylethyl)amino]-2-propanol tratrate]

Structure (SMILES): CC[C@@H]1C(=O)OC[C@@H]1Cc1cncn1C (relative stereo) [pilocarpine, (3s-cis)-3-ethyldihydro-4-[(1-methyl-1H-imidazol-5-yl)methyl]-2(3H)-furanone]
Mean IOP Reduction ([3]; (c) pilocarpine 40 mcg/hr alone from ocular therapeutic system in conjunctival sac): 1.6 mm

From US4281654A, “Drug delivery system for controlled ocular therapy” (ALZA Corporation, priority 1980, dated 1981)
